Data from ChEMBL document CHEMBL1144088, “Potential antipsoriatic agents: lapacho compounds as potent inhibitors of HaCaT cell growth” (J Nat Prod, 1999).

Columns and labels:
[1] = system: HaCaT; test: Antiproliferative activity against human HaCaT cells; format: cell-based
[2] = system: HaCaT; test: Cytotoxicity against human HaCaT cells assessed as LDH release at 2 uM; format: cell-based

SMILES | IC50 [1] [µM] | Activity [2] [mU]
CC(=O)c1cc2c(o1)C(=O)c1ccccc1C2=O [NAPABUCASIN] | 0.5 | 331
CCc1cc2c(o1)-c1cccc(O)c1C(=O)C2=O | 0.9 | 235
C=C(C)C1CC2=C(O1)C(=O)c1ccccc1C2=O (stereo not drawn) [DEHYDROISO-ALPHA-LAPACHONE] | 4.3 | 
CC1(C)CCC2=C(O1)C(=O)c1ccccc1C2=O [ALPHA-LAPACHONE] | 10 | 
CC/C=C/C1=C(O)C(=O)c2c(O)cccc2C1=O | > 10 | 
CC1(C)CCC2=C(O1)c1ccccc1C(=O)C2=O [LAPACHONE] | 0.7 | 329
O=C1c2c(O)cccc2Cc2cccc(O)c21 [ANTHRALIN] |  | 294
CC(C)=CCC1=C(O)C(=O)c2ccccc2C1=O [LAPACHOL] | > 10 | 
O=C1C=C(O)c2cccc(O)c2C1=O | > 10 | 
CC1(C)C=CC2=C(O1)C(=O)c1ccccc1C2=O [DEHYDRO-ALPHA-LAPACHONE] | > 10 | 
CC(O)c1cc2c(o1)C(=O)c1ccccc1C2=O (configuration not stated) | 3.7 | 
CC(=O)c1cc2c(o1)C(=O)c1c(O)cccc1C2=O | 0.3 | 346
CCc1cc2c(o1)C(=O)c1c(O)cccc1C2=O | 3 | 
